Measured values reported in patent publication US11497793B2, “Compositions and methods for treating glioblastoma” (TEL HASHOMER MEDICAL RESEARCH INFRASTRUCTURE AND SERVICES …, priority 2018, dated 2022).
The star is where a group is joined. Tos = Cc1ccc(S(=O)(=O)*)cc1; CH2Cl = ClC*

Assays:
PAR-1 = experiment: Western blot of PAR-1 level in glioma cells; assay type: cell-based, rat; settings: CNS-1 cells, 24 h; TMZ 500 μM, SIXAC 10 μM, alone or combined; vs FCS-free medium with 0.2% DMSO
Experimental: (§1) More particularly, the expression of two proteins, PAR-1 and phosphorylated extracellular signal-regulated kinase (pERK), was examined in glioma cells incubated with TMZ, SIXAC or a combination of TMZ+SIXAC.
(§2) CNS-1 rat glioma cells were grown in Dulbecco's modified Eagle's medium (DMEM; Bet Haemek, Biological Industries, Israel) supplemented with 10% fetal bovine serum (Bet Haemek, Biological Industries, Israel) and 1% penicillin and streptomycin in a 5% CO2-humidified atmosphere.
(§3) CNS-1 cells were seeded and incubated for 24 h. Then the medium was replaced by FCS-free medium for additional 24 h. Next, the cells were treated for 24 h with SIXAC (10 μM), TMZ (500 μM), a combination of TMZ (500 μM) and SIXAC (10 μM) or a FCS-free medium (containing 0.2% DMSO) which was used as a control (n=4 for each treatment group). The cells were then washed with ice-cold PBS and lysed in RIPA buffer (containing in mM: 50 TRIS HCl pH 8, 150 NaCl, 1% NP-40, 0.5% sodium deoxycholate, and 0.1% SDS), a protease inhibitor cocktail (Merck Millipore 539134, 1:100), 0.1 mM sodium orthovanadate and 2 mM PMSF. The cells were scraped, collected and centrifuged (16,000 g×20 min) at 4° C. The supernatants were collected, and protein concentration was determined by means of a bicinchoninic acid (BCA) assay.

[1] = system: phosphorylated extracellular signal-regulated kinase (pERK); experiment: Western blot of pERK level in glioma cells; assay type: cell-based, rat; settings: CNS-1 cells, 24 h; TMZ 500 μM, SIXAC 10 μM, alone or combined; vs FCS-free medium with 0.2% DMSO
Experimental: as §1, §2, §3

C6 rat glioma cells = experiment: Scratch (wound healing) assay of glioma cell migration; assay type: cell-based; settings: 4 h of incubation, SIXAC 1 μM, TMZ 100 μM, alone or combined
Experimental: C6 rat glioma cells were grown in Dulbecco's modified Eagle's medium (DMEM; Bet Haemek, Biological Industries, Israel) supplemented with 10% fetal bovine serum (Bet Haemek, Biological Industries, Israel) and 1% penicillin and streptomycin in a 5% CO2-humidified atmosphere.
The effect of TMZ and SIXAC on the coordinated movement of C6 glioma cells was evaluated using a wound healing assay. The cells were seeded in 24-well plates at a density of 5×10^4 cells/well. Cells were cultured in FCS-free medium for 24 h. A wound was established by scraping using 10 μl pipette tip. Cells were washed twice with warm PBS and then fresh FCS-free medium was added, containing SIXAC (1 μM), TMZ (100 μM) or a combination of SIXAC and TMZ. Wells with FCS-free medium only or FCS-free medium+DMSO 0.2% were used as controls (marked as “control” and “control+DMSO”) Image acquisition of wound gap closure (%) was carried out following 4 h of incubation using a Nikon Eclipse microscope Images were analyzed using Fiji software.

CNS-1 glioma cell line = experiment: Glioma cell proliferation measured by XTT; assay type: cell-based, rat; settings: CNS-1 cells, 72 hours, TMZ 500 μM, SIXAC 10 μM, alone or combined
Experimental: The following experiment tested the effect of the chemotherapeutic drug temozolomide (“TMZ”) in combination with the peptide conjugate Tosyl-ATLDPR-chloromethylketone (tosyl-SEQ ID NO: 3-CMK) on the proliferation of glioma cells. The peptide conjugate contains 6 amino acids from the N-terminus of PAR-1: ATLDPR (SEQ ID NO: 3), and is denoted herein as “SIXAC”.
In particular, CNS-1 glioma cell line (rat) was treated with either TMZ (500 μM), SIXAC (10 μM) or a combination of TMZ (500 μM) and SIXAC (10 μM) for 72 hours. Proliferation was measured by means of XTT in comparison to non-treated cells (control).

CNS-1 brain tumor = experiment: Survival in an animal model of GBM (CNS-1 cells injected into parietal cortex, intratumoral osmotic pump); assay type: in vivo; settings: rat GBM model; osmotic pump into tumor for 14 days; TMZ 2 mg/rat, SIXAC 6.9 μg/rat (20 μg/kg/day); monitored until Day 25
Experimental: CNS-1 cells ([…]) were injected using stereotactic methods into the parietal cortex of rats (n=20, 16 rats survived the surgery).
Five days later (Day 5) the brains of the rats that survived the surgery were examined by MRI and the tumors scored on a scale of 1-3. For each rat, a catheter was placed in the brain tumor and attached to an osmotic pump (Alzet®) releasing one of the following treatments ([…], for 14 days): TMZ 2 mg/rat (n=7), or TMZ 2 mg/rat and SIXAC 6.9 μg/rat (20 μg/kg/day) (n=7) (TMZ was dissolved in saline and 0.1M acetate buffer pH5) (50:50 v/v ratio).
The groups were monitored daily for survival until Day 25.

Molecule	PAR1 expression (PAR-1)	pERK expression [1]	wound-closure percentage (C6 rat glioma cells)	cell proliferation compared to non-treated cells (control) (CNS-1 glioma cell line)	Median survival (CNS-1 brain tumor)
tosyl-Ala-Thr-Leu-Asp-Pro-Arg-chloromethylketone (Tos-ATLDPR-CH2Cl; SMILES Cc1ccc(S(=O)(=O)N[C@@H](C)C(=O)N[C@H](C(=O)N[C@@H](CC(C)C)C(=O)N[C@@H](CC(=O)O)C(=O)N2CCC[C@H]2C(=O)N[C@@H](CCCNC(=N)N)C(=O)CCl)[C@@H](C)O)cc1) [SIXAC, peptide conjugate containing 6 amino acids from the N-terminus of PAR-1 with tosyl and chloromethylketone moieties]	did not cause any significant change	did not cause any significant change	significantly decrease	minor effect	–
Cn1nnc2c(C(N)=O)ncn2c1=O [TMZ, temozolomide, reference compound]	–	–	–	no significant effect	14 days
